Measurements: ChEMBL document CHEMBL1201862, “PubChem BioAssay data set” (2004)
Blank lines part the entries; values can stand above or below the compound they belong to. Active and inactive are the calls of the source.

Legend:
[1] = target: Multidrug resistance protein CDR2 (Candida albicans (strain SC5314 / ATCC MYA-2876) (Yeast), UniProt P78595); experiment: inhibition of Nile Red efflux via Candida CDR2 – S. cerevisiae AD1-8u, singleplex, Cherry Pick1 hits, dose response (AID 588604); format: functional
Leucine aminopeptidase = target: T1, Leucine aminopeptidase (Plasmodium falciparum 3D7, UniProt Q8IL11); experiment: P. falciparum M17LAP inhibitors, primary screen, biochemical, fluorogenic H-Leu-NHMec substrate, 1536-well (AID 1619); format: functional
T1 sequence (Q8IL11 whole entry): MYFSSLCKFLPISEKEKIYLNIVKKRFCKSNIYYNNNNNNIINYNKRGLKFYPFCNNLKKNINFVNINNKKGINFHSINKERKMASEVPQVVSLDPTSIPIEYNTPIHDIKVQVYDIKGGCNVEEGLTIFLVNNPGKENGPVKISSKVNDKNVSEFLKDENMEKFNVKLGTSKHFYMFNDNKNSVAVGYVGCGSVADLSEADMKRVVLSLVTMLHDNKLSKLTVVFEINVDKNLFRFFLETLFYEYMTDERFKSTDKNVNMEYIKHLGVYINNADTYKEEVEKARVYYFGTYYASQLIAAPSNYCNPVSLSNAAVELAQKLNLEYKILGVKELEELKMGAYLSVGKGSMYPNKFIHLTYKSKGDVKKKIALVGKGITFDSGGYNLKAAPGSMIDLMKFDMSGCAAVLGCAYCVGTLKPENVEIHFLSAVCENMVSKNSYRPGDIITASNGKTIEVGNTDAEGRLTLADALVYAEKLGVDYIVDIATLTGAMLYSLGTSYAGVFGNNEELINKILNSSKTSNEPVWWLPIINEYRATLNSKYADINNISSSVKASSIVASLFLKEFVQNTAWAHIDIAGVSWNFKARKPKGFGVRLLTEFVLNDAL

Procathepsin L = Procathepsin L (Homo sapiens, UniProt P07711); experiment: CTSL1 protease inhibition – biochemical, QFRET, 1536-well, counter-screen for M1/M17 aminopeptidase inhibitor project, dose response (AID 2214)
Aspartyl aminopeptidase = target: T2, Aspartyl aminopeptidase (Plasmodium falciparum 3D7, UniProt Q8I2J3); experiment: Counterscreen for inhibitors of M1 and M17 aminopeptidases: QFRET-based biochemical high throughput dose response assay for inhibitors of the Plasmodium falciparum M18 Aspartyl Aminopeptidase (PFM18AAP). [Related PubChem assays: 1619 (Screening assay (M17LAP inhibitors).), 1445 (Screening assay (M1AAP inhibitors).)]
T2 sequence (Q8I2J3 whole entry): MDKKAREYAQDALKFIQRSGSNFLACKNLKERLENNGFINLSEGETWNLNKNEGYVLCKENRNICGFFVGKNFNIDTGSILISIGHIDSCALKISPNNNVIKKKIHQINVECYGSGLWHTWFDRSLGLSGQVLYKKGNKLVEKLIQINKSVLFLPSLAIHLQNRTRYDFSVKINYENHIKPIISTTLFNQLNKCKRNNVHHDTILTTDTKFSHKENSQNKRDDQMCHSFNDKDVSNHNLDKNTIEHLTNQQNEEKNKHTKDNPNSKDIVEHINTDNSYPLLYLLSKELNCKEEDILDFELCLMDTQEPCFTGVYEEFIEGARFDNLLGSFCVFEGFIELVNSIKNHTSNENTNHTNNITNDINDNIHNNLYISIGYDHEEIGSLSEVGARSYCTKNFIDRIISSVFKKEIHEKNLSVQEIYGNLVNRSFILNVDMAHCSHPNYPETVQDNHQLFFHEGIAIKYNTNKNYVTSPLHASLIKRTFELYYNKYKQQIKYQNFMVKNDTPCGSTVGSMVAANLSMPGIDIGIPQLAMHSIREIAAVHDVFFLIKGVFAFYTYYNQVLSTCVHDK

[2] = target: Calcium/calmodulin-dependent protein kinase type II subunit beta (Homo sapiens, UniProt Q13554); format: functional
[3] = target: Glycogen synthase kinase-3 beta (Homo sapiens, UniProt P49841); format: functional;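 also: value comes from a broad kinome profiling panel, with GSK3B as the panel member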
Sequence of Glycogen synthase kinase-3 beta (P49841 whole entry): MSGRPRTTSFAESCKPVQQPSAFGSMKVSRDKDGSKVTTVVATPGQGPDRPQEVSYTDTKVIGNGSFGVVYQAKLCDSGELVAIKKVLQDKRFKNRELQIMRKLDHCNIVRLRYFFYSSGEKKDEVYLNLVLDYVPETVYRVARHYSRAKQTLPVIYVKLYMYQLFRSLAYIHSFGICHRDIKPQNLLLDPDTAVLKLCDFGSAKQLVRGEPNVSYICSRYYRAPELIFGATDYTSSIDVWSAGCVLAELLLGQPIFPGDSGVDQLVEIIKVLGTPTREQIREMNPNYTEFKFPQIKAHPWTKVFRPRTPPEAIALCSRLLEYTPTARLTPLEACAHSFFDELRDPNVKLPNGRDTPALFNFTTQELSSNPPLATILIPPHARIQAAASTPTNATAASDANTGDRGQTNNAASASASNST

Misshapen-like kinase 1 = Misshapen-like kinase 1 (Homo sapiens, UniProt Q8N4C8); format: functional;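 also: kinome panel screen with MINK as the panel member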
Sequence of Misshapen-like kinase 1 (Q8N4C8 whole entry): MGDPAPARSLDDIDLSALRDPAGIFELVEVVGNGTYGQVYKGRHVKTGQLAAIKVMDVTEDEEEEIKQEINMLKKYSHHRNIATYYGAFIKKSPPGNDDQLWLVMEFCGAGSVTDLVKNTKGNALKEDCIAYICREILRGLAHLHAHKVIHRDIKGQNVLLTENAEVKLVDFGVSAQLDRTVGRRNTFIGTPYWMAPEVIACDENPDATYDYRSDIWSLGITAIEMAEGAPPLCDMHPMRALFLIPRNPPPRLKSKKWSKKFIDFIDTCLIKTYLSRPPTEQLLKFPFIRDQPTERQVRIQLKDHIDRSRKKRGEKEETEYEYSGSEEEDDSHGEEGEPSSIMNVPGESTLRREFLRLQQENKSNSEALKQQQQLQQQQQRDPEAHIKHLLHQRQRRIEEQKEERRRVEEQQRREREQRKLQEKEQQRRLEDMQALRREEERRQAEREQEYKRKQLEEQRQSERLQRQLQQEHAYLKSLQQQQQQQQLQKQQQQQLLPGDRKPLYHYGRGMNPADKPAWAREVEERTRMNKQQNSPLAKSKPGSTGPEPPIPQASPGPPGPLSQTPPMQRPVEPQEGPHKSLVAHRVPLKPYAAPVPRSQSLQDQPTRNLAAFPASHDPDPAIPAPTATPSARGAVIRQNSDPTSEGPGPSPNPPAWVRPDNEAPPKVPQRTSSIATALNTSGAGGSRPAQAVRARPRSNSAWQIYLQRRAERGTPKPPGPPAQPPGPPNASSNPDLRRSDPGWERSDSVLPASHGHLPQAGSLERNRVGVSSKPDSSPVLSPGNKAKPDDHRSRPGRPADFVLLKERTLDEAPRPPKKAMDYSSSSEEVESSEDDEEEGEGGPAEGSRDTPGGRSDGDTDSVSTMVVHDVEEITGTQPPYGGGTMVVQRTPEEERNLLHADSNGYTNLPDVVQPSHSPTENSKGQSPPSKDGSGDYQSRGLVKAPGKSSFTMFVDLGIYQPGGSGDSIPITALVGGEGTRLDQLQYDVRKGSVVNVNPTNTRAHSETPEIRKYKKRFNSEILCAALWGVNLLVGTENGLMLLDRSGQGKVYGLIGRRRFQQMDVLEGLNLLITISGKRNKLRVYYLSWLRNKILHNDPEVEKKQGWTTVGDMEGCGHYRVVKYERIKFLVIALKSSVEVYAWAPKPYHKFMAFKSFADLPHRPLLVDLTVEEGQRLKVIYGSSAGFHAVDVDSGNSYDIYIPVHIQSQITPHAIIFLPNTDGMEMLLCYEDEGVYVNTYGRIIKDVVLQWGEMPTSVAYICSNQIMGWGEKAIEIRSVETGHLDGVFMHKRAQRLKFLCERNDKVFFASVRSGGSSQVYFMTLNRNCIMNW

[4] = target: Serine/threonine-protein kinase PLK3 (Homo sapiens, UniProt Q9H4B4); format: functional
[5] = target: Serine/threonine-protein kinase PLK1 (Homo sapiens, UniProt P53350); format: functional;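 also: PLK1 measured as one member of a kinome-wide profiling panel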
Sequence of Serine/threonine-protein kinase PLK1 (P53350 whole entry): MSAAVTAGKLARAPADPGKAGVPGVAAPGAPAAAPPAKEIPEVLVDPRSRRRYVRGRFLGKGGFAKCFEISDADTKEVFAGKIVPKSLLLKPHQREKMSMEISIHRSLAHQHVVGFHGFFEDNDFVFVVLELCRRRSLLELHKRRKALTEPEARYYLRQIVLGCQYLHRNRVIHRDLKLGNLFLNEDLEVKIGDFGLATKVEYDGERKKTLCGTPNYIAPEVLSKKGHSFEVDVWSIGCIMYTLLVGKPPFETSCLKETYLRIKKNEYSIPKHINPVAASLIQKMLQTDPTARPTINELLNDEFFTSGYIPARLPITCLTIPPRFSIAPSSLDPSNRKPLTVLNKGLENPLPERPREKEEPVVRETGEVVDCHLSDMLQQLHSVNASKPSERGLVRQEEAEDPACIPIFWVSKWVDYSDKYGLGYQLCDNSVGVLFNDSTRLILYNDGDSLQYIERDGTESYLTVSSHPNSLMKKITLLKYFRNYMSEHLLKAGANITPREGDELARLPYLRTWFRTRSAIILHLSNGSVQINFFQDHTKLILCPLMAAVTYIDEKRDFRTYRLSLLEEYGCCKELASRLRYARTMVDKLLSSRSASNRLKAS

[6] = target: Homeodomain-interacting protein kinase 2 (Homo sapiens, UniProt Q9H2X6); format: functional;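 also: measured within a kinome-wide kinase profiling panel, HIPK2 being one panel member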
[7] = target: MAP/microtubule affinity-regulating kinase 3 (Homo sapiens, UniProt P27448); format: functional;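 also: MARK3 affinity measured as one member of a kinome panel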
[8] = target: Tyrosine-protein kinase SYK (Homo sapiens, UniProt P43405); format: functional
[9] = target: Tyrosine-protein kinase Lck (Homo sapiens, UniProt P06239); format: functional;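 also: lck was assayed as one member of a kinase panel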
[10] = target: Serine/threonine-protein kinase pim-1 (Homo sapiens, UniProt P11309); format: functional
Sequence of Serine/threonine-protein kinase pim-1 (P11309 whole entry): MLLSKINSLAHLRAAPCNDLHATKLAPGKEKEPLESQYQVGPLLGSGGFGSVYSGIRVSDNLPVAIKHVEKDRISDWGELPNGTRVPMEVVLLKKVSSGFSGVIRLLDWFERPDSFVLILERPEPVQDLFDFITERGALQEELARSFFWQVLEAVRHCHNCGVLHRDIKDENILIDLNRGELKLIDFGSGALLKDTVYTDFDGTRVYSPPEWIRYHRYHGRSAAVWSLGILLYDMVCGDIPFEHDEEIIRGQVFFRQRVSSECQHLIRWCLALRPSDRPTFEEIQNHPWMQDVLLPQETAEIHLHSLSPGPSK

[11] = target: Serine/threonine-protein kinase TAO1 (Homo sapiens, UniProt Q7L7X3); format: functional
[12] = target: Tyrosine-protein kinase Fyn (Homo sapiens, UniProt P06241); format: functional
LIM domain kinase 1 = LIM domain kinase 1 (Homo sapiens, UniProt P53667); experiment: Navigating the Kinome. Panel member name: LIMK1; format: functional
[13] = target: Tyrosine-protein kinase BTK (Homo sapiens, UniProt Q06187); format: functional
[14] = target: Cyclin-dependent kinase 8 (Homo sapiens, UniProt P49336); experiment: Navigating the Kinome. Panel member name: CDK8; format: functional
Sequence of Cyclin-dependent kinase 8 (P49336 whole entry): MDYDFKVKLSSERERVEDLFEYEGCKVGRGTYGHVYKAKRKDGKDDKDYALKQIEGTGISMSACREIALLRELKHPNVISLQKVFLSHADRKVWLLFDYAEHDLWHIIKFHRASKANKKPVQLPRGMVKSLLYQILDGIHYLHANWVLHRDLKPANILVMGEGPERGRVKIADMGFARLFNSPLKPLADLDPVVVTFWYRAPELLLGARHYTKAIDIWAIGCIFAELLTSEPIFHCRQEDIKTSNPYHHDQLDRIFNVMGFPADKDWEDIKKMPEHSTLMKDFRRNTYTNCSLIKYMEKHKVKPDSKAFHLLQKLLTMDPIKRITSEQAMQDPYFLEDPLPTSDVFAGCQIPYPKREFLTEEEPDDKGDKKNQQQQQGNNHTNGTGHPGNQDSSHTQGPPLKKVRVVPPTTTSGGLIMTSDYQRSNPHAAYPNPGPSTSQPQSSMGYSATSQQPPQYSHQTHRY

Focal adhesion kinase 1 = Focal adhesion kinase 1 (Homo sapiens, UniProt Q05397); format: functional;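 also: measured as one member of a kinome panel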
[15] = target: ALK tyrosine kinase receptor (Homo sapiens, UniProt Q9UM73); format: functional;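 also: ALK tested as one member of a kinase panel screen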
[16] = target: Tyrosine-protein kinase Blk (Homo sapiens, UniProt P51451); format: functional;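 also: obtained as one member of a kinome-wide kinase assay panel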
[17] = target: Casein kinase I isoform delta (Homo sapiens, UniProt P48730); format: functional;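 also: measured as one member (CSNK1D) of a kinome panel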
[18] = target: Calcium/calmodulin-dependent protein kinase type II subunit delta (Homo sapiens, UniProt Q13557); format: functional
Sequence of Calcium/calmodulin-dependent protein kinase type II subunit delta (Q13557 whole entry): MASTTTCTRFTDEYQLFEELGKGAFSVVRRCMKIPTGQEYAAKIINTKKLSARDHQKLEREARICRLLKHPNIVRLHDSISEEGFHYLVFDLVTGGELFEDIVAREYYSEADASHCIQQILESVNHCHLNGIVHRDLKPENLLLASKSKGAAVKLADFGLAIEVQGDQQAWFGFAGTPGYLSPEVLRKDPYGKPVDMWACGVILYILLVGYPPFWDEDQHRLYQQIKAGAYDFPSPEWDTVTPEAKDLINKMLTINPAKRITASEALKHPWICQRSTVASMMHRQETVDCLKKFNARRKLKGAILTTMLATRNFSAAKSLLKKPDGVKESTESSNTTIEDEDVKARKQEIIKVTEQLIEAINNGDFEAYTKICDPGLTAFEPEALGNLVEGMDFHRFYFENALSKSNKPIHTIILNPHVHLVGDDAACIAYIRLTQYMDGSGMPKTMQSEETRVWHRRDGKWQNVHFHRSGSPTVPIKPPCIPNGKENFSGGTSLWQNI

[19] = target: Serine/threonine-protein kinase MRCK alpha (Homo sapiens, UniProt Q5VT25); format: functional
[20] = target: Testis-specific serine/threonine-protein kinase 2 (Homo sapiens, UniProt Q96PF2); format: functional;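 also: part of the Navigating the Kinome panel, target entry STK22B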
[21] = target: Lymphokine-activated killer T-cell-originated protein kinase (Homo sapiens, UniProt Q96KB5); format: functional;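 also: value comes from a kinase panel screen in which TOPK was one of the panel members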
[22] = target: Mitogen-activated protein kinase 14 (Homo sapiens, UniProt Q16539); format: functional;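 also: part of a kinome-wide panel, MAPK14 entry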
[23] = target: Serine/threonine-protein kinase pim-2 (Homo sapiens, UniProt Q9P1W9); format: functional;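 also: value comes from a broad kinase panel profiling study in which PIM2 was one of the panel members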
[24] = target: Cyclin-dependent kinase 7 (Homo sapiens, UniProt P50613); format: functional;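 also: value comes from a kinome-wide kinase profiling panel in which CDK7 is one member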
[25] = target: Vascular endothelial growth factor receptor 3 (Homo sapiens, UniProt P35916); format: functional;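 also: value from a kinome-wide profiling panel, with FLT4 as the panel member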
Sequence of Vascular endothelial growth factor receptor 3 (P35916 whole entry): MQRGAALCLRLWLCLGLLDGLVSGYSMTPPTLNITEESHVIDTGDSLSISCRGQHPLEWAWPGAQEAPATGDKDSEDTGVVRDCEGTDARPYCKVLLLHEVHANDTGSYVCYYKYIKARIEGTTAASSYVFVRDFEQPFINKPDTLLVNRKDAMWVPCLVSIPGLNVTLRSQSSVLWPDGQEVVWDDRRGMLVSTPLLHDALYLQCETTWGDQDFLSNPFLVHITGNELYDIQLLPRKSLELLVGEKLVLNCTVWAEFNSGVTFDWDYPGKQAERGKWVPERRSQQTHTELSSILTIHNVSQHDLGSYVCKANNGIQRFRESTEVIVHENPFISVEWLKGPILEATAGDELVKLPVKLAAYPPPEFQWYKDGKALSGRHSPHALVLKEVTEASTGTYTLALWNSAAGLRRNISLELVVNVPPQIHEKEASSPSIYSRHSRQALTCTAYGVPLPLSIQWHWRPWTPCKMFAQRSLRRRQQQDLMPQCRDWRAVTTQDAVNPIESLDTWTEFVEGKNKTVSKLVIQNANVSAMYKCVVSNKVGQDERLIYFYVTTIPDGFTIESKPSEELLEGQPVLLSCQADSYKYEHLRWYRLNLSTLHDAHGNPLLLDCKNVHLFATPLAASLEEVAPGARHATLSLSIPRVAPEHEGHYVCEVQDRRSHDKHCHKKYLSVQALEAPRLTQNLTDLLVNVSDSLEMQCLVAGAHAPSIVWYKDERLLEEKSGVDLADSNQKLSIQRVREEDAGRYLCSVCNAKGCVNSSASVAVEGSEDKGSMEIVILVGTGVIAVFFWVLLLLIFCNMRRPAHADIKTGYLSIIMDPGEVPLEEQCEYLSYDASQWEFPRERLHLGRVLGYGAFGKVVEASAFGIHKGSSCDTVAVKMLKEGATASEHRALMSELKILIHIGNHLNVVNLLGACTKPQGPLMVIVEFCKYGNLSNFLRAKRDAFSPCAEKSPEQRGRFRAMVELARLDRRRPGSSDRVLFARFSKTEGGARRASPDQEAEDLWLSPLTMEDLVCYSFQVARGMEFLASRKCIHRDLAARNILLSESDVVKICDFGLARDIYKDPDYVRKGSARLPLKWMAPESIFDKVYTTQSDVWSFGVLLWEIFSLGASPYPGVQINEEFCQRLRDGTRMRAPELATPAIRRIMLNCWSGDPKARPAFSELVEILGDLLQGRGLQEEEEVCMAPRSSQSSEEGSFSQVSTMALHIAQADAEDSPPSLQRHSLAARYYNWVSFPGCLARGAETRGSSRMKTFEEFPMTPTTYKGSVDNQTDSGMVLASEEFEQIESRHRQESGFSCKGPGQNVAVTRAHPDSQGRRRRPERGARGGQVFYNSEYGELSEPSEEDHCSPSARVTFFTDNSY

[26] = target: cGMP-dependent protein kinase 1 (Homo sapiens, UniProt Q13976); format: functional;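 also: value from a kinome panel screen with PRKG1 as the panel member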
[27] = target: Serine/threonine-protein kinase D3 (Homo sapiens, UniProt O94806); format: functional;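 also: determined within a kinase panel screen, with PRKCN as the panel member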
[28] = target: Cyclin-dependent kinase 2 (Homo sapiens, UniProt P24941); format: functional;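 also: CDK2 measured as one member of a broad kinome profiling panel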
[29] = target: Casein kinase I isoform gamma-1 (Homo sapiens, UniProt Q9HCP0); format: functional;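 also: measured as the CSNK1G1 member of a kinome profiling panel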
[30] = target: Dual specificity tyrosine-phosphorylation-regulated kinase 4 (Homo sapiens, UniProt Q9NR20); format: functional
[31] = target: Mitogen-activated protein kinase 13 (Homo sapiens, UniProt O15264); format: functional
[32] = target: Tyrosine-protein kinase Lyn (Homo sapiens, UniProt P07948); format: functional;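 also: lyn as one member of a kinase panel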
[33] = target: Cyclin-dependent kinase 5 (Homo sapiens, UniProt Q00535); format: functional;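 also: CDK5 measured as one member of a kinase profiling panel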
[34] = target: cAMP-dependent protein kinase catalytic subunit PRKX (Homo sapiens, UniProt P51817); format: functional
[35] = target: Mitogen-activated protein kinase 9 (Homo sapiens, UniProt P45984); format: functional;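 also: value from a kinome panel profiling assay, MAPK9 panel entry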
[36] = target: Dual specificity tyrosine-phosphorylation-regulated kinase 3 (Homo sapiens, UniProt O43781); format: functional;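 also: measured as one member of a broad kinase panel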
[37] = target: Macrophage-stimulating protein receptor (Homo sapiens, UniProt Q04912); experiment: Navigating the Kinome. Panel member name: MST1R; format: functional
[38] = target: Mitogen-activated protein kinase kinase kinase 20 (Homo sapiens, UniProt Q9NYL2); format: functional
[39] = target: RAC-gamma serine/threonine-protein kinase (Homo sapiens, UniProt Q9Y243); format: functional
[40] = target: Receptor tyrosine-protein kinase erbB-4 (Homo sapiens, UniProt Q15303); format: functional;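 also: ERBB4 member of a kinome-wide kinase profiling panel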
[41] = target: Cell division cycle 7-related protein kinase (Homo sapiens, UniProt O00311); format: functional;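 also: value obtained from a kinome-wide kinase panel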
Wee1-like protein kinase = Wee1-like protein kinase (Homo sapiens, UniProt P30291); experiment: Navigating the Kinome. Panel member name: WEE1; format: functional
[42] = target: Protein kinase C iota type (Homo sapiens, UniProt P41743); format: functional;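 also: measured within a kinome-wide kinase panel, PRKCI as panel member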
[43] = target: Glycogen synthase kinase-3 alpha (Homo sapiens, UniProt P49840); format: functional;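 also: GSK3A result taken from a broad kinome-wide kinase panel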
[44] = target: MAP kinase-activated protein kinase 3 (Homo sapiens, UniProt Q16644); format: functional;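 also: value comes from a kinome-wide profiling panel in which MAPKAPK3 is one of the panel members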
[45] = target: Protein kinase C gamma type (Homo sapiens, UniProt P05129); format: functional
[46] = target: Mitogen-activated protein kinase kinase kinase kinase 5 (Homo sapiens, UniProt Q9Y4K4); format: functional;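 also: measured as one member of a kinome-spanning kinase panel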
[47] = target: Cyclin-dependent kinase 9 (Homo sapiens, UniProt P50750); format: functional;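 also: value from the CDK9 entry of a kinome-spanning kinase panel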
[48] = target: 5'-AMP-activated protein kinase catalytic subunit alpha-1 (Homo sapiens, UniProt Q13131); format: functional
[49] = target: Cyclin-dependent kinase 1 (Homo sapiens, UniProt P06493); format: functional;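 also: Kinome-wide panel profiling, with the target listed as panel member CDC2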
[50] = target: Casein kinase II subunit alpha (Homo sapiens, UniProt P68400); format: functional
[51] = target: RAC-alpha serine/threonine-protein kinase (Homo sapiens, UniProt P31749); format: functional;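 also: AKT1 affinity measured as one member of a kinome-wide kinase profiling panel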

SMILES: Cc1cc(C(=O)COC(=O)c2ccc[nH]c2=O)c(C)n1-c1ccc(F)cc1
EC50 [1]: 6.22 µM (active) | IC50 (Leucine aminopeptidase): 1.98 µM (active) | IC50 (Procathepsin L): > 59.6 µM (not active) | IC50 (Aspartyl aminopeptidase): > 73.5 µM (not active)

Ki [2]: 6.31 µM (active) | Ki [3]: 3.98 µM (active) | Ki (Misshapen-like kinase 1): 6.31 µM (active) | Ki [4]: 3.16 µM (active) | Ki [5]: 2.51 µM (active) | Ki [6]: 3.16 µM (active) | Ki [7]: 3.98 µM (active) | Ki [8]: 1.26 µM (active)
SMILES: Cc1ccc(Nc2c(C(=O)O)n(CCCOc3cccc4ccccc34)c3cccc(-c4ccccc4C)c23)cc1

Ki [9]: > 6.31 µM (inactive) | Ki [10]: > 6.31 µM (inactive) | Ki [11]: > 6.31 µM (inactive) | Ki [12]: > 6.31 µM (inactive) | Ki (LIM domain kinase 1): 0.501 µM (active) | Ki [13]: > 6.31 µM (inactive) | Ki [14]: 1.58 µM (active) | Ki (Focal adhesion kinase 1): > 6.31 µM (inactive) | Ki [15]: > 6.31 µM (inactive)
SMILES: CC(C)(C)c1cc(NC(=O)C(=O)c2cccc3ccccc23)n(-c2ccc(OCC(=O)NCCO)cc2)n1

Ki [10]: > 7.94 µM (inactive) | Ki [16]: 0.0631 µM (active) | Ki [17]: > 7.94 µM (inactive) | Ki [18]: 0.00398 µM (active) | Ki [19]: 3.98 µM (active) | Ki [20]: 0.01 µM (active) | Ki [22]: > 3.98 µM (inactive) | Ki [23]: > 1.58 µM (inactive) | Ki [24]: 0.0794 µM (active) | Ki [25]: 0.00794 µM (active) | Ki [26]: 1.58 µM (active) | Ki [27]: 0.0316 µM (active) | pKi [28]: 6.9 | Ki [29]: > 6.31 µM (inactive) | Ki [30]: > 7.94 µM (inactive) | Ki [31]: > 7.94 µM (inactive) | Ki [32]: 0.0794 µM (active) | Ki [33]: 0.0794 µM (active) | Ki (Misshapen-like kinase 1): 1 µM (active) | Ki [34]: > 1 µM (inactive) | Ki [35]: 0.398 µM (active) | Ki [36]: > 6.31 µM (inactive) | Ki [37]: 0.126 µM (active) | Ki [14]: > 3.98 µM (inactive) | Ki [38]: > 7.94 µM (inactive) | Ki [39]: > 10 µM (inactive) | Ki [40]: 0.02 µM (active) | Ki [41]: > 1 µM (inactive) | Ki (Wee1-like protein kinase): > 0.251 µM (inactive) | Ki [42]: > 5.01 µM (inactive) | Ki [43]: > 3.16 µM (inactive) | Ki [44]: > 10 µM (inactive) | Ki [45]: > 1 µM (inactive) | Ki [46]: 0.0794 µM (active) | Ki [47]: > 1.58 µM (inactive) | Ki [48]: 0.01 µM (active) | Ki [49]: 0.316 µM (active) | Ki [50]: > 2.51 µM (inactive) | Ki [51]: > 7.94 µM (inactive)
SMILES: COc1cc(N2CCC(N3CCN(C)CC3)CC2)ccc1Nc1ncc(Cl)c(Nc2ccccc2S(=O)(=O)C(C)C)n1 [TAE-684]
Ki [21]: > 10 µM (inactive)
